{"source": "patent US20260256792A1", "about": "“TREATMENT OF CHRONIC SPONTANEOUS URTICARIA BY ADMINISTERING (R)-2-[3-[4-AMINO-3-(2-FLUORO-4-PHENOXY-PHENYL)PYRAZOLO[3,4-D]PYRIMIDIN-1-YL]PIPERIDINE-1-CARBONYL]-4-METHYL-4-[4-(OXETAN-3-YL)PIPERAZIN-1-YL]PENT-2-ENENITRILE” (priority 2023, published 2026)", "tested_on": "angioedema in CSU patients", "experiment": "Phase 2 CSU study: angioedema activity score over 7 days (AAS7)", "format": "in vivo, human", "conditions": "400 mg BID; for AAS7 = 0, OR (95% CI) for rilzabrutinib vs. placebo / AAS7 = 0, RRD (%) for rilzabrutinib vs. placebo (95% CI) / AAS7 Post-baseline Mean (SD) / Participants with AAS7 = 0, Responder n (%) / AAS7 % Change difference for rilzabrutinib vs. placebo LS Mean (95% CI) / AAS7 % Change from baseline LS Mean (SE) / AAS7 Change difference for rilzabrutinib vs. placebo LS Mean (95% CI) / AAS7 Change from baseline LS Mean (SE) / AAS7 = 0, Non-responder n (%): angioedema at baseline; for Non-responder n (%), AAS7 = 0 / OR (95% CI) for rilzabrutinib vs. placebo, AAS7 = 0 / Responder n (%), AAS7 = 0 / RRD (%) for rilzabrutinib vs. placebo (95% CI), AAS7 = 0: outlier removed", "excerpt": "The study comprises a 12 week, randomized, double-blind, placebo-controlled, multi-center, dose-ranging efficacy and safety phase, followed by a 40 week open label extension (OLE) phase (see FIG. 1). The study consists of three phases and an optional OLE phase. […] The weekly angioedema activity score (AAS7) was proposed as a tertiary endpoint. […] Patients were to complete the AAS using the e-diary. The e-diary was to be used once daily on the same time of each day recording of participant's answers to the angioedema activity score over 7 days (AAS7) questionnaire."}
{"smiles": "CC(C)(C=C(C#N)C(=O)N1CCC[C@@H](n2nc(-c3ccc(Oc4ccccc4)cc3F)c3c(N)ncnc32)C1)N1CCN(C2COC2)CC1", "note": "[rilzabrutinib, (R)-2-[3-[4-amino-3-(2-fluoro-4-phenoxy-phenyl)pyrazolo[3,4-d]pyrimidin-1-yl]piperidine-1-carbonyl]-4-methyl-4-[4-(oxetan-3-yl)piperazin-1-yl]pent-2-enenitrile]", "values": [{"measurement": "AAS7 = 0, OR (95% CI) for rilzabrutinib vs. placebo", "setting": "Week 4, omalizumab-naïve", "value": 2.118}, {"measurement": "AAS7 = 0, RRD (%) for rilzabrutinib vs. placebo (95% CI)", "setting": "Week 4, omalizumab-naïve", "value": 16.8, "unit": "%"}, {"measurement": "AAS7 Post-baseline Mean (SD)", "setting": "Week 4, omalizumab-naïve", "value": "14.79 (17.89)"}, {"measurement": "Participants with AAS7 = 0, Responder n (%)", "setting": "Week 4, omalizumab-naïve", "value": "11 (42.3) n (%)"}, {"measurement": "AAS7 % Change difference for rilzabrutinib vs. placebo LS Mean (95% CI)", "setting": "Week 5, ITT", "value": "−14.36 (−40.13, 11.41) %"}, {"measurement": "AAS7 % Change from baseline LS Mean (SE)", "setting": "Week 5, ITT", "value": "−68.19 (10.08) %"}, {"measurement": "AAS7 Change difference for rilzabrutinib vs. placebo LS Mean (95% CI)", "setting": "Week 5, ITT", "value": "−6.53 (−17.51, 4.44)"}, {"measurement": "AAS7 Change from baseline LS Mean (SE)", "setting": "Week 5, ITT", "value": "−36.13 (4.29)"}, {"measurement": "AAS7 Post-baseline Mean (SD)", "setting": "Week 5, ITT", "value": "12.95 (20.09)"}, {"measurement": "Non-responder n (%), AAS7 = 0", "setting": "Week 5, omalizumab-naïve", "value": "14 (40.0) n (%)"}, {"measurement": "OR (95% CI) for rilzabrutinib vs. placebo, AAS7 = 0", "setting": "Week 5, omalizumab-naïve", "value": 1.574}, {"measurement": "Responder n (%), AAS7 = 0", "setting": "Week 5, omalizumab-naïve", "value": "21 (60.0) n (%)"}, {"measurement": "AAS7 % Change difference for rilzabrutinib vs. placebo LS Mean (95% CI)", "setting": "Week 5, omalizumab-naïve", "value": "−10.97 (−38.45, 16.50) %"}, {"measurement": "AAS7 = 0, Non-responder n (%)", "setting": "Week 5, omalizumab-naïve", "value": "13 (50.0) n (%)"}, {"measurement": "AAS7 = 0, OR (95% CI) for rilzabrutinib vs. placebo", "setting": "Week 5, omalizumab-naïve", "value": 2.390}, {"measurement": "AAS7 = 0, RRD (%) for rilzabrutinib vs. placebo (95% CI)", "setting": "Week 5, omalizumab-naïve", "value": 22.3, "unit": "%"}, {"measurement": "AAS7 Post-baseline Mean (SD)", "setting": "Week 5, omalizumab-naïve", "value": "13.98 (20.55)"}, {"measurement": "Participants with AAS7 = 0, Responder n (%)", "setting": "Week 5, omalizumab-naïve", "value": "13 (50.0) n (%)"}, {"measurement": "AAS7 % Change difference for rilzabrutinib vs. placebo LS Mean (95% CI)", "setting": "Week 6, ITT", "value": "−23.55 (−50.40, 3.31) %"}, {"measurement": "AAS7 Change difference for rilzabrutinib vs. placebo LS Mean (95% CI)", "setting": "Week 6, ITT", "value": "−10.15 (−21.84, 1.54)"}, {"measurement": "AAS7 Change from baseline LS Mean (SE)", "setting": "Week 6, ITT", "value": "−36.76 (4.50)"}, {"measurement": "AAS7 Post-baseline Mean (SD)", "setting": "Week 6, ITT", "value": "12.28 (18.70)"}, {"measurement": "Non-responder n (%), AAS7 = 0", "setting": "Week 6, omalizumab-naïve", "value": "17 (48.6) n (%)"}, {"measurement": "OR (95% CI) for rilzabrutinib vs. placebo, AAS7 = 0", "setting": "Week 6, omalizumab-naïve", "value": 1.118}, {"measurement": "RRD (%) for rilzabrutinib vs. placebo (95% CI), AAS7 = 0", "setting": "Week 6, omalizumab-naïve", "value": 2.9, "unit": "%"}, {"measurement": "Responder n (%), AAS7 = 0", "setting": "Week 6, omalizumab-naïve", "value": "18 (51.4) n (%)"}, {"measurement": "AAS7 % Change difference for rilzabrutinib vs. placebo LS Mean (95% CI)", "setting": "Week 6, omalizumab-naïve", "value": "−20.62 (−49.95, 8.72) %"}, {"measurement": "AAS7 = 0, Non-responder n (%)", "setting": "Week 6, omalizumab-naïve", "value": "15 (57.7) n (%)"}, {"measurement": "AAS7 = 0, OR (95% CI) for rilzabrutinib vs. placebo", "setting": "Week 6, omalizumab-naïve", "value": 1.828}, {"measurement": "AAS7 = 0, RRD (%) for rilzabrutinib vs. placebo (95% CI)", "setting": "Week 6, omalizumab-naïve", "value": 13.6, "unit": "%"}, {"measurement": "AAS7 Post-baseline Mean (SD)", "setting": "Week 6, omalizumab-naïve", "value": "13.26 (19.12)"}, {"measurement": "Participants with AAS7 = 0, Responder n (%)", "setting": "Week 6, omalizumab-naïve", "value": "11 (42.3) n (%)"}, {"measurement": "AAS7 % Change difference for rilzabrutinib vs. placebo LS Mean (95% CI)", "setting": "Week 7, ITT", "value": "−25.42 (−54.97, 4.13) %"}, {"measurement": "AAS7 % Change from baseline LS Mean (SE)", "setting": "Week 7, ITT", "value": "−71.37 (11.45) %"}, {"measurement": "AAS7 Change from baseline LS Mean (SE)", "setting": "Week 7, ITT", "value": "−37.72 (4.37)"}, {"measurement": "AAS7 Post-baseline Mean (SD)", "setting": "Week 7, ITT", "value": "13.39 (19.19)"}, {"measurement": "Non-responder n (%), AAS7 = 0", "setting": "Week 7, omalizumab-naïve", "value": "18 (51.4) n (%)"}, {"measurement": "OR (95% CI) for rilzabrutinib vs. placebo, AAS7 = 0", "setting": "Week 7, omalizumab-naïve", "value": 1.022}, {"measurement": "RRD (%) for rilzabrutinib vs. placebo (95% CI), AAS7 = 0", "setting": "Week 7, omalizumab-naïve", "value": 0.6, "unit": "%"}, {"measurement": "Responder n (%), AAS7 = 0", "setting": "Week 7, omalizumab-naïve", "value": "17 (48.6) n (%)"}, {"measurement": "AAS7 % Change difference for rilzabrutinib vs. placebo LS Mean (95% CI)", "setting": "Week 7, omalizumab-naïve", "value": "−23.13 (−55.14, 8.88) %"}, {"measurement": "AAS7 % Change from baseline LS Mean (SE)", "setting": "Week 7, omalizumab-naïve", "value": "−70.13 (12.07) %"}, {"measurement": "AAS7 = 0, Non-responder n (%)", "setting": "Week 7, omalizumab-naïve", "value": "15 (57.7) n (%)"}, {"measurement": "AAS7 = 0, OR (95% CI) for rilzabrutinib vs. placebo", "setting": "Week 7, omalizumab-naïve", "value": 1.515}, {"measurement": "AAS7 Post-baseline Mean (SD)", "setting": "Week 7, omalizumab-naïve", "value": "14.38 (19.63)"}, {"measurement": "Participants with AAS7 = 0, Responder n (%)", "setting": "Week 7, omalizumab-naïve", "value": "11 (42.3) n (%)"}, {"measurement": "AAS7 % Change difference for rilzabrutinib vs. placebo LS Mean (95% CI)", "setting": "Week 8, ITT", "value": "−29.34 (−59.45, 0.76) %"}, {"measurement": "AAS7 % Change from baseline LS Mean (SE)", "setting": "Week 8, ITT", "value": "−81.40 (11.62) %"}, {"measurement": "AAS7 Change difference for rilzabrutinib vs. placebo LS Mean (95% CI)", "setting": "Week 8, ITT", "value": "−13.31 (−24.25, −2.37)"}, {"measurement": "AAS7 Change from baseline LS Mean (SE)", "setting": "Week 8, ITT", "value": "−41.63 (4.21)"}, {"measurement": "AAS7 Post-baseline Mean (SD)", "setting": "Week 8, ITT", "value": "9.20 (16.24)"}, {"measurement": "Non-responder n (%), AAS7 = 0", "setting": "Week 8, omalizumab-naïve", "value": "14 (40.0) n (%)"}, {"measurement": "OR (95% CI) for rilzabrutinib vs. placebo, AAS7 = 0", "setting": "Week 8, omalizumab-naïve", "value": 1.991}, {"measurement": "RRD (%) for rilzabrutinib vs. placebo (95% CI), AAS7 = 0", "setting": "Week 8, omalizumab-naïve", "value": 17.0, "unit": "%"}, {"measurement": "Responder n (%), AAS7 = 0", "setting": "Week 8, omalizumab-naïve", "value": "21 (60.0) n (%)"}, {"measurement": "AAS7 % Change difference for rilzabrutinib vs. placebo LS Mean (95% CI)", "setting": "Week 8, omalizumab-naïve", "value": "−30.39 (−63.25, 2.47) %"}, {"measurement": "AAS7 % Change from baseline LS Mean (SE)", "setting": "Week 8, omalizumab-naïve", "value": "−80.38 (12.36) %"}, {"measurement": "AAS7 = 0, Non-responder n (%)", "setting": "Week 8, omalizumab-naïve", "value": "13 (50.0) n (%)"}, {"measurement": "AAS7 = 0, OR (95% CI) for rilzabrutinib vs. placebo", "setting": "Week 8, omalizumab-naïve", "value": 2.829}]}
